Test results as given in US20120083522A1, “MODULATION OF INFLAMMATORY RESPONSES BY FACTOR XI” (Isis Pharmaceuitcals, inc., priority 2009, published 2012).
In the oligonucleotide strings, read from the 5' end, every base follows the letter of its sugar. An asterisk marks phosphorothioate; unmarked linkages are phosphodiester. Other units and linkages are bracketed, terminal groups are in braces. A string of capitals states the bases alone. e = 2'-O-(2-methoxyethyl) (MOE); [5mC] = 5-methylcytosine; d = 2'-deoxy (DNA)

Experiments:
human Factor XI mRNA = assay: Antisense inhibition of human Factor XI in HepG2 cells, 75 nM, lipofectin (Example 1); format: cell-based; conditions: HepG2, 75 nM, approximately 24 hours, gapmers targeted to SEQ ID NO: 1, relative to untreated control cells
Method: Antisense oligonucleotides targeted to a Factor XI nucleic acid were tested for their effects on Factor XI mRNA in vitro. Cultured HepG2 cells at a density of 10,000 cells per well were transfected using lipofectin reagent with 75 nM antisense oligonucleotide. After a treatment period of approximately 24 hours, RNA was isolated from the cells and Factor XI mRNA levels were measured by quantitative real-time PCR. Factor XI mRNA levels were adjusted according to total RNA content, as measured by RIBOGREEN®. Results are presented as percent inhibition of Factor XI, relative to untreated control cells.
The chimeric antisense oligonucleotides in Tables 1 and 2 were designed as 5-10-5 MOE gapmers. The gapmers are 20 nucleotides in length, wherein the central gap segment is comprised of 10 2′-deoxynucleotides and is flanked on both sides (in the 5′ and 3′ directions) by wings comprising 5 nucleotides each. Each nucleotide in the 5′ wing segment and each nucleotide in the 3′ wing segment has a 2′-MOE modification. The internucleoside linkages throughout each gapmer are phosphorothioate (P═S) linkages. All cytidine residues throughout each gapmer are 5-methylcytidines. “Target start site” indicates the 5′-most nucleotide to which the gapmer is targeted. “Target stop site” indicates the 3′-most nucleotide to which the gapmer is targeted. […]

[1] = Tolerability in CD1 mice: liver function (Example 25); format: in vivo; conditions: 50 mg/kg s.c. twice per week for 6 weeks, plasma
[2] = Tolerability in CD1 mice: kidney function (Example 25); format: in vivo; conditions: 50 mg/kg s.c. twice per week for 6 weeks, plasma
[3] = Tolerability in CD1 mice: hematology assays (Example 25); format: in vivo; design: RBC / WBC / Neutrophil / Lymphocyte / Platelets: unit not given here; conditions: 50 mg/kg s.c. twice per week for 6 weeks, blood
[4] = Tolerability in CD1 mice: body and organ weight (Example 25); format: in vivo; conditions: 50 mg/kg s.c. twice per week for 6 weeks
[5] = Cynomolgus monkeys: body and organ weights (Example 30); format: in vivo; conditions: day 55
Method: (§1) Groups, each consisting of two male and two female monkeys, were injected subcutaneously with 25 mg/kg of ISIS 416850, ISIS 449709, ISIS 445522, ISIS 449710, ISIS 449707, ISIS 449711, ISIS 449708, 416858 and ISIS 445531. Antisense oligonucleotide was administered to the monkeys at 25 mg/kg three times per week for week 1 and 25 mg/kg twice per week for weeks 2 to 8. A control group, consisting of two male and two female monkeys was injected subcutaneously with PBS according to the same dosing regimen. Body weights were taken 14 days and 7 days before the start of treatment and were then measured weekly throughout the treatment period. Blood samples were collected 14 days and 5 days before the start of treatment and subsequently several times during the dosing regimen for measurement of various hematologic factors. On day 55, the monkeys were euthanized by exsanguination while under deep anesthesia, and organs harvested for further analysis.
Organ weights were taken after the animals were euthanized on day 55, and livers, kidneys and spleens were harvested.

[6] = test system: IL-1β, IL-6, IFN-γ, TNF-α, IL-8, MIP-1α, MCP-1, MIP-10, RANTES; assay: Cynomolgus monkeys: cytokine and chemokine assays (Example 30); format: in vivo
Method: as §1
Blood samples obtained from all monkey groups were sent to Pierce Biotechnology (Woburn, Mass.) for measurements of chemokine and cytokine levels. Levels of IL-1β, IL-6, IFN-γ, and TNF-α were measured using the respective primate antibodies and levels of IL-8, MIP-1α, MCP-1, MIP-10 and RANTES were measured using the respective cross-reacting human antibodies. Measurements were taken 14 days before the start of treatment and on day 55, when the monkeys were euthanized.

[7] = day −14 (before start of treatment)

412213 (antisense eA*eA*eA*e[5mC]*eA*dA*dG*d[5mC]*dA*dA*d[5mC]*d[5mC]*dG*dG*dG*eA*eT*eG*eA*eT) [compound 412213]
% inhibition (human Factor XI mRNA): 71%

ISIS 445503: microwalk gapmer of Table 51 (antisense eG*e[5mC]*eA*eT*eT*eG*dG*dT*dG*d[5mC]*dA*d[5mC]*dA*dG*eT*eT*eT*e[5mC]*eT*eG)
ALT [1]: 1314 IU/L
AST [1]: 852 IU/L
Albumin [1]: 3.4 mg/dL
Bilirubin [1]: 0.28 mg/dL
BUN [2]: 29 mg/dL
HCT [3]: 46%
Hemoglobin [3]: 13.6 g/dL
Lymphocyte [3]: 6436
Neutrophil [3]: 1475
Platelets [3]: 309
RBC [3]: 9.2
WBC [3]: 8
Body weight (increase over PBS control weight before start of treatment) [4]: 9 g
Kidney weight as percentage of body weight ([4]; end of study): 1.4%
Liver weight as percentage of body weight ([4]; end of study): 8%
Spleen weight as percentage of body weight ([4]; end of study): 0.6%

ISIS 449711: microwalk gapmer of Table 53 (antisense eA*e[5mC]*dA*dG*dT*dT*dT*d[5mC]*dT*dG*dG*d[5mC]*eA*eG)
spleen weight (in words) [5]: caused increase in spleen weight
IL-1β level ([6]; 25 mg/kg s.c., day 55): 146 pg/mL
MIP-1β level ([6]; 25 mg/kg s.c., day 55): 91 pg/mL
IL-1β level [6, 7]: 79 pg/mL
MIP-1β level [6, 7]: 24 pg/mL
